# Source: PubChem BioAssay (NCI)
#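 Five concentrations, 48 hours, 96-well plates. GI50 = concentration required for 50% inhibition of growth. TGI is the concentration that stops growth completely.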
# What was measured:
# Assay in all cases: DTP human tumour cell line panel, 48 h
# ACHN renal = test system: ACHN renal
# TK-10 renal = test system: TK-10 renal
# NCI-H460 lung = test system: NCI-H460 lung
# SNB-75 CNS = test system: SNB-75 CNS
# MDA-MB-468 breast = test system: MDA-MB-468 breast
# SNB-19 CNS = test system: SNB-19 CNS
# A549 NSCLC = test system: A549 NSCLC
# OVCAR-4 ovarian = test system: OVCAR-4 ovarian
# A498 renal = test system: A498 renal
# COLO 205 colon = test system: COLO 205 colon
# SK-OV-3 ovarian = test system: SK-OV-3 ovarian
# DU-145 prostate = test system: DU-145 prostate
# K-562 leukemia = test system: K-562 leukemia
# IGROV1 ovarian = test system: IGROV1 ovarian
# RXF 393 renal = test system: RXF 393 renal
# UO-31 renal = test system: UO-31 renal
# RPMI-8226 leukemia = test system: RPMI-8226 leukemia
# HL-60(TB) leukemia = test system: HL-60(TB) leukemia
# MALME-3M melanoma = test system: MALME-3M melanoma
# SF-295 CNS = test system: SF-295 CNS
# HCT-15 colon = test system: HCT-15 colon
# NCI-H226 lung = test system: NCI-H226 lung
# HOP-92 NSCLC = test system: HOP-92 NSCLC
# UACC-62 melanoma = test system: UACC-62 melanoma
# M14 melanoma = test system: M14 melanoma
# T-47D breast = test system: T-47D breast
# HCC-2998 colon = test system: HCC-2998 colon
# OVCAR-8 ovarian = test system: OVCAR-8 ovarian
# SN12C renal = test system: SN12C renal
# MDA-MB-435 = test system: MDA-MB-435
# SF-539 CNS = test system: SF-539 CNS
# SK-MEL-5 melanoma = test system: SK-MEL-5 melanoma
# HS 578T breast = test system: HS 578T breast
# MDA-MB-231 breast = test system: MDA-MB-231 breast
# EKVX NSCLC = test system: EKVX NSCLC
# NCI-H23 lung = test system: NCI-H23 lung
# LOX IMVI melanoma = test system: LOX IMVI melanoma
# KM12 colon = test system: KM12 colon
# HOP-62 NSCLC = test system: HOP-62 NSCLC
# HT29 colon = test system: HT29 colon
# NCI/ADR-RES ovarian = test system: NCI/ADR-RES ovarian
# BT-549 breast = test system: BT-549 breast
# SK-MEL-2 melanoma = test system: SK-MEL-2 melanoma
# PC-3 prostate = test system: PC-3 prostate
# SR leukemia = test system: SR leukemia
# MOLT-4 leukemia = test system: MOLT-4 leukemia
# UACC-257 melanoma = test system: UACC-257 melanoma
# CCRF-CEM leukemia = test system: CCRF-CEM leukemia
# OVCAR-3 ovarian = test system: OVCAR-3 ovarian
# SW-620 colon = test system: SW-620 colon
# 786-0 renal = test system: 786-0 renal
# OVCAR-5 ovarian = test system: OVCAR-5 ovarian
# SK-MEL-28 melanoma = test system: SK-MEL-28 melanoma
# U251 CNS = test system: U251 CNS
# NCI-H522 lung = test system: NCI-H522 lung
# MCF7 breast = test system: MCF7 breast
# HCT-116 colon = test system: HCT-116 colon
# CAKI-1 renal = test system: CAKI-1 renal
# SF-268 CNS = test system: SF-268 CNS
smiles,measurement,setting,value
Fc1ccc(/C=C/c2nc3ccccc3n3c(-c4ccc(Cl)cc4)nnc23)cc1,GI50,ACHN renal,13.6 µM
same,TGI,ACHN renal,46.2 µM
same,GI50,TK-10 renal,36.9 µM
same,TGI,TK-10 renal,> 100 µM
same,GI50,NCI-H460 lung,25.3 µM
same,TGI,NCI-H460 lung,> 100 µM
same,GI50,SNB-75 CNS,4.47 µM
same,TGI,SNB-75 CNS,> 100 µM
same,GI50,MDA-MB-468 breast,3.78 µM
same,TGI,MDA-MB-468 breast,20.2 µM
same,GI50,SNB-19 CNS,51 µM
same,TGI,SNB-19 CNS,> 100 µM
same,GI50,A549 NSCLC,18.8 µM
same,TGI,A549 NSCLC,> 100 µM
same,GI50,OVCAR-4 ovarian,20.1 µM
same,TGI,OVCAR-4 ovarian,95.6 µM
same,GI50,A498 renal,> 100 µM
same,TGI,A498 renal,> 100 µM
same,GI50,COLO 205 colon,18.9 µM
same,TGI,COLO 205 colon,71.4 µM
same,GI50,SK-OV-3 ovarian,62.6 µM
same,TGI,SK-OV-3 ovarian,> 100 µM
same,GI50,DU-145 prostate,16.6 µM
same,TGI,DU-145 prostate,53.1 µM
same,GI50,K-562 leukemia,6.46 µM
same,TGI,K-562 leukemia,> 100 µM
same,GI50,IGROV1 ovarian,13.8 µM
same,TGI,IGROV1 ovarian,51.4 µM
same,GI50,RXF 393 renal,10.8 µM
same,TGI,RXF 393 renal,72.5 µM
same,GI50,UO-31 renal,14.1 µM
same,TGI,UO-31 renal,> 100 µM
same,GI50,RPMI-8226 leukemia,16.7 µM
same,TGI,RPMI-8226 leukemia,> 100 µM
same,GI50,HL-60(TB) leukemia,27.4 µM
same,TGI,HL-60(TB) leukemia,> 100 µM
same,GI50,MALME-3M melanoma,11.3 µM
same,TGI,MALME-3M melanoma,24.9 µM
same,GI50,SF-295 CNS,> 100 µM
same,TGI,SF-295 CNS,> 100 µM
same,GI50,HCT-15 colon,9.36 µM
same,TGI,HCT-15 colon,25.4 µM
same,GI50,NCI-H226 lung,31.5 µM
same,TGI,NCI-H226 lung,> 100 µM
same,GI50,HOP-92 NSCLC,24.4 µM
same,TGI,HOP-92 NSCLC,> 100 µM
same,GI50,UACC-62 melanoma,21 µM
same,TGI,UACC-62 melanoma,> 100 µM
same,GI50,M14 melanoma,14.2 µM
same,TGI,M14 melanoma,32.9 µM
same,GI50,T-47D breast,14.3 µM
same,TGI,T-47D breast,> 100 µM
same,GI50,HCC-2998 colon,37.9 µM
same,TGI,HCC-2998 colon,> 100 µM
same,GI50,OVCAR-8 ovarian,16.2 µM
same,TGI,OVCAR-8 ovarian,80.4 µM
same,GI50,SN12C renal,13.5 µM
same,TGI,SN12C renal,34.3 µM
same,GI50,MDA-MB-435,26.5 µM
same,TGI,MDA-MB-435,> 100 µM
same,GI50,SF-539 CNS,16.8 µM
same,TGI,SF-539 CNS,40.6 µM
same,GI50,SK-MEL-5 melanoma,29.1 µM
same,TGI,SK-MEL-5 melanoma,> 100 µM
same,GI50,HS 578T breast,29.3 µM
same,TGI,HS 578T breast,> 100 µM
same,GI50,MDA-MB-231 breast,20 µM
same,TGI,MDA-MB-231 breast,88.4 µM
same,GI50,EKVX NSCLC,58.3 µM
same,TGI,EKVX NSCLC,> 100 µM
same,GI50,NCI-H23 lung,17.1 µM
same,TGI,NCI-H23 lung,53 µM
same,GI50,LOX IMVI melanoma,1.61 µM
same,TGI,LOX IMVI melanoma,3.41 µM
same,GI50,KM12 colon,> 100 µM
same,TGI,KM12 colon,> 100 µM
same,GI50,HOP-62 NSCLC,47.7 µM
same,TGI,HOP-62 NSCLC,> 100 µM
same,GI50,HT29 colon,11.8 µM
same,TGI,HT29 colon,33 µM
same,GI50,NCI/ADR-RES ovarian,30.4 µM
same,TGI,NCI/ADR-RES ovarian,> 100 µM
same,GI50,BT-549 breast,16 µM
same,TGI,BT-549 breast,72.6 µM
same,GI50,SK-MEL-2 melanoma,40.1 µM
same,TGI,SK-MEL-2 melanoma,> 100 µM
same,GI50,PC-3 prostate,30.4 µM
same,TGI,PC-3 prostate,> 100 µM
same,GI50,SR leukemia,2.44 µM
same,TGI,SR leukemia,19.7 µM
same,GI50,MOLT-4 leukemia,3.74 µM
same,TGI,MOLT-4 leukemia,34.9 µM
same,GI50,UACC-257 melanoma,38.6 µM
same,TGI,UACC-257 melanoma,> 100 µM
same,GI50,CCRF-CEM leukemia,2.82 µM
same,TGI,CCRF-CEM leukemia,8.8 µM
same,GI50,OVCAR-3 ovarian,23 µM
same,TGI,OVCAR-3 ovarian,> 100 µM
same,GI50,SW-620 colon,11.3 µM
same,TGI,SW-620 colon,25.7 µM
same,GI50,786-0 renal,31.5 µM
same,TGI,786-0 renal,> 100 µM
same,GI50,OVCAR-5 ovarian,23.3 µM
same,TGI,OVCAR-5 ovarian,> 100 µM
same,GI50,SK-MEL-28 melanoma,54.4 µM
same,TGI,SK-MEL-28 melanoma,> 100 µM
same,GI50,U251 CNS,18.4 µM
same,TGI,U251 CNS,88.6 µM
same,GI50,NCI-H522 lung,1.47 µM
same,TGI,NCI-H522 lung,3.01 µM
same,GI50,MCF7 breast,1.78 µM
same,TGI,MCF7 breast,34.6 µM
same,GI50,HCT-116 colon,12.5 µM
same,TGI,HCT-116 colon,41.2 µM
same,GI50,CAKI-1 renal,44.2 µM
same,TGI,CAKI-1 renal,> 100 µM
same,GI50,SF-268 CNS,67.7 µM
same,TGI,SF-268 CNS,> 100 µM
